Reference: patent US12540118B2, “Dendrene amide compound, bactericide and use thereof” (Jiangsu Flag Chemical Industry Co., Ltd., priority 2020, dated 2026)

Key:
Erysiphe graminis = Erysiphe graminis potting method; format: in vivo
Description: The fungicidal activity of the control agents and target compounds are determined. The test and investigation method refers to SOP-SC-1116 Erysiphe graminis potting method in disinfectant rolls written by KANGZHUO and GUBAOGEN in “Standard operation specification for testing biological activity of pesticides”.

succinate dehydrogenase = biological target: T1, succinate dehydrogenase (Sus scrofa, UniProt A5GZW8+D0VWV4+Q007T0); experiment: Enzyme activity assay, succinate dehydrogenase (DCIP reduction); format: biochemical, porcine; conditions: read-out: Inhibitors (10 μM, SQR)
T1 construct: isolated from porcine hearts; from tissue; host or cells: porcine heart
Description: The inhibitory activities of control agents and target compounds on succinate dehydrogenase are determined.
The enzyme used in this test example is succinate dehydrogenase, which is isolated from porcine hearts.
The test method comprises the following steps: The total volume of the system is 1.8 ml, and the system contained 100 mM Na2HPO4—NaH2PO4 buffer (pH=7.4), 0.3 mM EDTA, 20 mM sodium succinate, 53 μM DCIP (2,6-dichloroindophenol sodium), and 2 nM succinate dehydrogenase. Thermostatic waterbath at 23° C. and magnetic stirring at 600 rpm. The decrease in the light absorption of the substrate DCIP is monitored at a wavelength of 600 nm and experimental points in a linear range are collected. Control substrate consumption not more than 5% of the experimental points. The molar extinction coefficient of DCIP is 21 mM^−1 cm^−1. And calculating the reduction yield of the DCIP in the reaction time, fitting a linear slope, and deducting the baseline slope to obtain the initial reaction speed.

Sphaerotheca fuliginea = Sphaerotheca fuliginea potting method; format: in vivo; conditions: 100 mg/L; for pest or weed control at 100 µg/mL: Podosphaera fuliginea, read-out: Sphaerotheca fuliginea control rating
Description: The fungicidal activity of the control agents and target compounds are determined. The test and investigation method refers to SOP-SC-1101 sphaerotheca fuliginea potting method in disinfectant rolls written by KANGZHUO and GUBAOGEN in “Standard operation specification for testing biological activity of pesticides”.

[1] = Blumeria graminis, 100 mg/L, read-out: Erysiphe graminis control rating

T1 sequence (Q0QF01 43-664 partner): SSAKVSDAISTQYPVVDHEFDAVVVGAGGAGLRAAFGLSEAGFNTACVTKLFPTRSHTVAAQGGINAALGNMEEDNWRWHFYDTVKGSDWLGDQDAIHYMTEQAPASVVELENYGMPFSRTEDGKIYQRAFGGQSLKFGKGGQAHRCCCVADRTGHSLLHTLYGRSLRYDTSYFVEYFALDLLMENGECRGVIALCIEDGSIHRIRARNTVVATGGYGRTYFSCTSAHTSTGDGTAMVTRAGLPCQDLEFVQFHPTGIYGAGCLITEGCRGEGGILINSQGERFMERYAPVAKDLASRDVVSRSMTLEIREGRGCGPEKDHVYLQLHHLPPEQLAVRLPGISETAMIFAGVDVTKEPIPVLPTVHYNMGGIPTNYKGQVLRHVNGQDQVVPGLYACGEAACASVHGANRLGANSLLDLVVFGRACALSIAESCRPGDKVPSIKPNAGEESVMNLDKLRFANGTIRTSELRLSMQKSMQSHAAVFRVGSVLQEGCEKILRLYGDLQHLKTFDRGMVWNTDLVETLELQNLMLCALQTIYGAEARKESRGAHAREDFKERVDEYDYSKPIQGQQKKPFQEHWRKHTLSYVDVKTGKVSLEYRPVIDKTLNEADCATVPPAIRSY
T1 sequence (Q007T0 29-280): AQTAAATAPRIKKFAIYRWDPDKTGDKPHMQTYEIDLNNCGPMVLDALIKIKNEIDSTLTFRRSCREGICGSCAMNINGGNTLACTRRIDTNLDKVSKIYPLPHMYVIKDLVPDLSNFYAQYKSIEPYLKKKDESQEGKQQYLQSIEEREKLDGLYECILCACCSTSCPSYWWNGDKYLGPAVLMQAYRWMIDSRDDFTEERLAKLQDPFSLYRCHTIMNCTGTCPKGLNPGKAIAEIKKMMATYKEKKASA
T1 sequence (D0VWV4 30-169): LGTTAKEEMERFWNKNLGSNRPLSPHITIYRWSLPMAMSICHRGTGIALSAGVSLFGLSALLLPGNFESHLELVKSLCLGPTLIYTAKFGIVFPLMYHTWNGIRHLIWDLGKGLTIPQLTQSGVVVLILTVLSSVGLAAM
T1 sequence (A5GZW8 57-159 limits assumed): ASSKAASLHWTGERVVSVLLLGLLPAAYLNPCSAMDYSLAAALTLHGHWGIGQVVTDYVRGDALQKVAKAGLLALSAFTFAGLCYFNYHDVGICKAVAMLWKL

Row | Structure (SMILES) | inhibition at 10 µM (succinate dehydrogenase) [%] | pest or weed control at 100 µg/mL (Erysiphe graminis; [1]) [%] | pest or weed control at 100 µg/mL (Sphaerotheca fuliginea) [%] | further results
1 | CC(C(=C(Cl)Cl)c1ccc(F)cc1Cl)N(C(=O)c1c(C(F)F)nn(C)c1F)C1CC1 (centres unmarked) [Compound 207] | > 90 | 80 to 100 | 80 to 100 | 
2 | C=C(CN(C(=O)c1c(C(F)F)nn(C)c1F)C1CC1)c1c(Cl)cc(Cl)cc1Cl [Compound 19] | > 90 | 80 to 100 | 80 to 100 | 
3 | C=C(CN(C(=O)c1c(C(F)F)nn(C)c1F)C1CC1)c1ccc(C)cc1 [Compound 4] | > 90 | 80 to 100 | < 70 | 
4 | C=C(CN(C(=O)c1c(C(F)F)nn(C)c1F)C1CC1)c1cc(F)c(Cl)cc1Cl [Compound 13] | > 90 | 80 to 100 | 80 to 100 | 
5 | Cn1cc(C(=O)N(CC(=C(Cl)Cl)c2ccc(Cl)cc2)C2CC2)c(C(F)F)n1 [Compound 114] | > 90 | 80 to 100 | 80 to 100 | 
6 | CC(C(=C(Cl)Cl)c1cccc(C(F)(F)F)c1Cl)N(C(=O)c1c(C(F)F)nn(C)c1F)C1CC1 (centres unmarked) [Compound 210] | > 90 | 80 to 100 | 80 to 100 | 
7 | C=C(c1ccc(F)cc1F)C(C)N(C(=O)c1c(C(F)F)nn(C)c1F)C1CC1 (centres unmarked) [Compound 64] | > 90 | 80 to 100 | 80 to 100 | 
8 | C=C(CN(C(=O)c1c(C(F)F)nn(C)c1F)C1CC1)c1c(F)cccc1F [Compound 25] | > 90 | 80 to 100 | 80 to 100 | 
9 | C=C(c1ccc(Cl)c(Cl)c1)C(C)N(C(=O)c1c(C(F)F)nn(C)c1F)C1CC1 (centres unmarked) [Compound 65] | > 90 | 80 to 100 | 80 to 100 | 
10 | CC(C(=C(Cl)Cl)c1cc(Cl)cc(Cl)c1)N(C(=O)c1c(C(F)F)nn(C)c1F)C1CC1 (centres unmarked) [Compound 174] | > 90 | 80 to 100 | 80 to 100 | 
11 | C=C(CN(C(=O)c1c(C(F)F)nn(C)c1F)C1CC1)c1ccc(F)cc1F [Compound 23] | > 90 | 80 to 100 | 80 to 100 | 
12 | CC(C(=C(Cl)Cl)c1ccc(Cl)cc1Cl)N(C(=O)c1c(C(F)F)nn(C)c1F)C1CC1 (centres unmarked) [Compound 170] | > 90 | 80 to 100 | 80 to 100 | 
13 | C=C(c1ccc(F)cc1)C(C)N(C(=O)c1c(C(F)F)nn(C)c1F)C1CC1 (centres unmarked) [Compound 68] | > 90 | 80 to 100 | 80 to 100 | 
14 | OC(Cc1ccccc1Cl)(Cn1nc[nH]c1=S)C1(Cl)CC1 (centres unmarked) [Prothioconazole, reference compound] |  | 80 to 100 | 70 to 80 | pest or weed control at 6.25 µg/mL (Erysiphe graminis; Blumeria graminis, 6.25 mg/L, read-out: Erysiphe graminis control rating): 70 to 80%; pest or weed control at 25 µg/mL (Erysiphe graminis; Blumeria graminis, 25 mg/L, read-out: Erysiphe graminis control rating): 80 to 100%
15 | C=C(c1ccc(C#CC2CC2)cc1F)C(C)N(C(=O)c1c(C(F)F)nn(C)c1F)C1CC1 (centres unmarked) [Compound 110] | > 90 | 80 to 100 | 80 to 100 | 
16 | Cc1cccc(C)c1C(=C(Cl)Cl)C(C)N(C(=O)c1c(C(F)F)nn(C)c1F)C1CC1 (centres unmarked) [Compound 195] | > 90 | 80 to 100 | 80 to 100 | 
17 | Cc1ccc(C(=C(Cl)Cl)C(C)N(C(=O)c2c(C(F)F)nn(C)c2F)C2CC2)c(C)c1 (centres unmarked) [Compound 193] | > 90 | 80 to 100 | 80 to 100 | 
18 | C=C(c1cccc(Cl)c1)C(C)N(C(=O)c1c(C(F)F)nn(C)c1F)C1CC1 (centres unmarked) [Compound 57] | > 90 | 80 to 100 | 80 to 100 | 
19 | Cc1cc(C(C)C)ccc1C(=C(Cl)Cl)C(C)N(C(=O)c1c(C(F)F)nn(C)c1F)C1CC1 (centres unmarked) [Compound 201] | > 90 | 80 to 100 | 80 to 100 | 
20 | C=C(c1ccc(S(=O)(=O)CC)cc1)C(C)N(C(=O)c1c(C(F)F)nn(C)c1F)C1CC1 (centres unmarked) [Compound 107] | > 90 | 80 to 100 | 80 to 100 | 
21 | C=C(c1c(Cl)cccc1Cl)C(C)N(C(=O)c1c(C(F)F)nn(C)c1F)C1CC1 (centres unmarked) [Compound 73] | > 90 | 80 to 100 | 80 to 100 | 
22 | C=C(c1cc(C(C)(C)C)ccc1C)C(C)N(C(=O)c1c(C(F)F)nn(C)c1F)C1CC1 (centres unmarked) [Compound 95] | > 90 | 80 to 100 | 80 to 100 | 
23 | CC(C(=C(Cl)Cl)c1ccc(F)c(F)c1)N(C(=O)c1c(C(F)F)nn(C)c1F)C1CC1 (centres unmarked) [Compound 183] | > 90 | 80 to 100 | 80 to 100 | 
24 | Cc1ccc(C(C)(C)C)c(C(=C(Cl)Cl)C(C)N(C(=O)c2c(C(F)F)nn(C)c2F)C2CC2)c1 (centres unmarked) [Compound 199] | > 90 | 80 to 100 | 80 to 100 | 
25 | CNC(=O)/C(=N/OC)c1ccccc1CO/N=C(C)/C=C/c1c(Cl)cccc1Cl [Fenaminstrobin, reference compound] |  |  |  | Erysiphe graminis control rating (Erysiphe graminis; 6.25 mg/L): B (70% ≤ B < 80%); Erysiphe graminis control rating (Erysiphe graminis; 25 mg/L): A (80% ≤ A ≤ 100%); Erysiphe graminis control rating (Erysiphe graminis; 100 mg/L): A (80% ≤ A ≤ 100%); Sphaerotheca fuliginea control rating (Sphaerotheca fuliginea): B (70% ≤ B < 80%)

Further lines, with some results ahead:

Row | inhibition at 10 µM (succinate dehydrogenase) [%] | Structure (SMILES) | pest or weed control at 100 µg/mL (Erysiphe graminis; [1]) [%] | pest or weed control at 100 µg/mL (Sphaerotheca fuliginea) [%] | further results
26 | > 90 | C=C(CN(C(=O)c1c(C(F)F)nn(C)c1F)C1CC1)c1ccc(Cl)c(Cl)c1 [Compound 10] | 80 to 100 | 80 to 100 | 
27 | > 90 | Cc1ccc(C(C)(C)C)cc1C(CN(C(=O)c1c(C(F)F)nn(C)c1F)C1CC1)=C(Cl)Cl [Compound 147] | 80 to 100 | 80 to 100 | 
28 | > 90 | Cn1nc(C(F)F)c(C(=O)N(CC(=C(Cl)Cl)c2ccccc2)C2CC2)c1F [Compound 111] | 80 to 100 | 80 to 100 | 
29 | > 90 | Cn1nc(C(F)F)c(C(=O)N(CC(=C(Cl)Cl)c2ccccc2Br)C2CC2)c1F [Compound 132] | 80 to 100 | 80 to 100 | 
30 | > 90 | CC(C(=C(Cl)Cl)c1ccccc1S(C)(=O)=O)N(C(=O)c1c(C(F)F)nn(C)c1F)C1CC1 (centres unmarked) [Compound 214] | 80 to 100 | 80 to 100 | 
31 | > 90 | C=C(CN(C(=O)c1c(C(F)F)nn(C)c1F)C1CC1)c1cccc(Br)c1 [Compound 5] | 80 to 100 | < 70 | 
32 | > 90 | Cn1nc(C(F)F)c(C(=O)N(CC(=C(Cl)Cl)c2ccc(Cl)cc2Cl)C2CC2)c1F [Compound 118] | 80 to 100 | 80 to 100 | 
33 | > 90 | C=C(CN(C(=O)c1c(C(F)F)nn(C)c1F)C1CC1)c1ccccc1 [Compound 9] | 80 to 100 | < 70 | 
34 | > 90 | Cn1nc(C(F)F)c(C(=O)N(CC(=C(Cl)Cl)c2cc(F)ccc2F)C2CC2)c1F [Compound 127] | 80 to 100 | 80 to 100 | 
35 | > 90 | Cc1cc(C(C)C)ccc1C(CN(C(=O)c1c(C(F)F)nn(C)c1F)C1CC1)=C(Cl)Cl [Compound 148] | 80 to 100 | 80 to 100 | 
36 | > 90 | Cn1nc(C(F)F)c(C(=O)N(CC(=C(Cl)Cl)c2cc(S(C)(=O)=O)ccc2Cl)C2CC2)c1F [Compound 162] | 80 to 100 | 80 to 100 | 
37 | > 90 | Cn1nc(C(F)F)c(C(=O)N(CC(=C(Cl)Cl)c2cccc(Cl)c2)C2CC2)c1F [Compound 117] | 80 to 100 | 80 to 100 | 
38 | > 90 | CC(C(=C(Cl)Cl)c1ccccc1F)N(C(=O)c1c(C(F)F)nn(C)c1F)C1CC1 (centres unmarked) [Compound 176] | 80 to 100 | 80 to 100 | 
39 | > 90 | Cn1nc(C(F)F)c(C(=O)N(CC(=C(Cl)Cl)c2c(Br)cccc2Br)C2CC2)c1F [Compound 136] | 80 to 100 | 80 to 100 | 
40 | > 90 | C=C(CN(C(=O)c1c(C(F)F)nn(C)c1F)C1CC1)c1cc(Br)ccc1Br [Compound 29] | 80 to 100 | 80 to 100 | 
41 | > 90 | Cn1nc(C(F)F)c(C(=O)N(CC(=C(Cl)Cl)c2cccc(C(F)(F)F)c2Cl)C2CC2)c1F [Compound 157] | 80 to 100 | 80 to 100 | 
